pEC50, pIC50, pKi: −log10 of the molar value.
What was measured:
[1] = Compound was tested for Inhibition of influenza A [influenza A/Shandong/09/93 (H3N2)] neuraminidase; set-up: species or system Influenza A virus
[2] = test system: MDCK; experiment: Inhibitory activity against Influenza virus in MDCK cells; type: functional, cell-based; details: Canis lupus familiaris

SMILES	pIC50 [1]	pKi [1]	pEC50 [2]
CC(=O)Nc1c(NC(=N)N)cc(C(=O)O)cc1[C@H](O)[C@H](O)CO	< 4.00	< 4.00	
CC(=O)N[C@H]1[C@H]([C@H](O)[C@H](O)CO)OC(C(=O)O)=C[C@@H]1NC(=N)N [ZANAMIVIR]	8.30	9.00	7.40

From ChEMBL document CHEMBL1151025, “Synthesis and influenza neuraminidase inhibitory activity of aromatic analogues of sialic acid” (Bioorg Med Chem Lett, 1995)
